The experiment has as its target T1, SFRP-1 (Homo sapiens, UniProt Q8N474).
T1 sequence (Q8N474 32-314): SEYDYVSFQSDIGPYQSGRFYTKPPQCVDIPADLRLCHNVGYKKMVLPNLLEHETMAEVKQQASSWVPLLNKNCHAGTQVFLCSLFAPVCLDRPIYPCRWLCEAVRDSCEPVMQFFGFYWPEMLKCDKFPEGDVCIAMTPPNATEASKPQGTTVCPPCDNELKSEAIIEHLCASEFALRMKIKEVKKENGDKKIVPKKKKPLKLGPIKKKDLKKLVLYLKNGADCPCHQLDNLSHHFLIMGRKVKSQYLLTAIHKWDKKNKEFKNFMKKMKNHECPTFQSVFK
Put plainly: Cell-based assay for in vitro measurement of SFRP-1/SARP2 antagonist activity (U2OS cells co-transfected with 16x TCF-tk-Luciferase reporter, Wnt and hSFRP-1).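 Also: U2OS cells co-transfected with a TCF-tk luciferase reporter, a Wnt vector, hSFRP-1 or empty vector and CMV-βgal, luciferase luminescence read in cell lysates alongside βgal activity.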 As to conditions: U2OS. Background: A reporter such as luciferase makes a cellular process visible.

Where [1] appears, read: read-out: Fold Induction with SFRP-1, Conc 15 μM, with SFRP-1, fold induction over SFRP-1 control, single dose.
Where [2] appears, read: read-out: Fold Induction without SFRP-1, Conc 15 μM, without SFRP-1, single dose.
The mark [3] stands for this setting: read-out: Fold Induction with SFRP-1, Conc 15 μM, single dose, luciferase reporter, fold induction over SFRP-1 control, cells with SFRP-1.
The mark [4] stands for this setting: read-out: Fold Induction without SFRP-1, Conc 15 μM, single dose, luciferase reporter, cells without SFRP-1 (specificity control).

The structures appear in SMILES notation. Read-outs that look alike come from different tables or passages of the source.

As for `CCc1ccccc1S(=O)(=O)c1ccc(C)c(S(=O)(=O)NCCc2ccccn2)c1` [Example 431, 5-[(2-ethylphenyl)sulfonyl]-2-methyl-N-(2-pyridin-2-ylethyl)benzenesulfonamide], the fold induction at 15 µM came out at 1.7 under setting [1] and 0.8 under setting [2].

As for `Cc1ccc(S(=O)(=O)c2ccccc2-c2ccccc2)cc1S(=O)(=O)NCCc1ccccn1` [Example 432, 5-(biphenyl-2-ylsulfonyl)-2-methyl-N-(2-pyridin-2-ylethyl)benzenesulfonamide], the fold induction at 15 µM reads like this: under setting [1], 1.9; under setting [2], 0.9.

Regarding `Cc1ccc(S(=O)(=O)c2ccc(-c3ccccc3)cc2)cc1S(=O)(=O)NCCc1ccccn1` [Example 433, 5-(biphenyl-4-ylsulfonyl)-2-methyl-N-(2-pyridin-2-ylethyl)benzenesulfonamide], the fold induction at 15 µM was 2.5 under setting [1] and 1.1 under setting [2].

Take `Cc1ccc(S(=O)(=O)c2cccc(-c3ccccc3)c2)cc1S(=O)(=O)NCCc1ccccn1` [Example 434, 5-(biphenyl-3-ylsulfonyl)-2-methyl-N-(2-pyridin-2-ylethyl)benzenesulfonamide]: the fold induction at 15 µM was determined as 2.1 under setting [1] and 1.1 under setting [2].

With `Cc1ccc(S(=O)(=O)c2ccc(C(C)(C)C)cc2)cc1S(=O)(=O)NCCc1ccccn1` [Example 438, 5-[(4-tert-butylphenyl)sulfonyl]-2-methyl-N-(2-pyridin-2-ylethyl)benzenesulfonamide], the fold induction at 15 µM by setting is: under setting [1], 1.6; under setting [2], 1.

Turning to `CC(C)c1ccc(S(=O)(=O)c2ccc(F)cc2)cc1S(=O)(=O)NC[C@@H](C)c1ccccc1` [Example 444, 5-[(4-fluorophenyl)sulfonyl]-2-isopropyl-N-[(2S)-2-phenylpropyl]benzenesulfonamide], the fold induction at 15 µM was found to be 1.4 under setting [1] and 1.1 under setting [2].

In the case of `Cc1ccc(S(=O)(=O)c2ccccc2)cc1S(=O)(=O)NC1CCNCC1` [Example 447, 2-methyl-5-(phenylsulfonyl)-N-piperidin-4-ylbenzenesulfonamide], the fold induction at 15 µM by setting is: under setting [1], 3; under setting [2], 1.1.

With `CNc1ccc(S(=O)(=O)c2ccc(C(C)C)c(S(=O)(=O)NCCn3ccnc3)c2)cc1` [Example 451, N-[2-(1H-imidazol-1-yl)ethyl]-2-isopropyl-5-{[4-(methylamino)phenyl]sulfonyl)benzenesulfonamide], the fold induction at 15 µM is, setting by setting: under setting [1], 3.7; under setting [2], 1.1.

Turning to `Cc1cc(C)cc(S(=O)(=O)c2ccc(C(C)C)c(S(=O)(=O)NCCc3ccccn3)c2)c1` [Example 454, 5-[(3,5-dimethylphenyl)sulfonyl]-2-isopropyl-N-(2-pyridin-2-ylethyl)benzenesulfonamide], the fold induction at 15 µM under setting [1] was 1.7 and the fold induction at 15 µM under setting [2] was found to be 1.1.

Turning to `CC(C)c1ccc(S(=O)(=O)c2cc(F)cc(F)c2)cc1S(=O)(=O)NCCc1ccccn1` [Example 458, 5-[(3,5-difluorophenyl)sulfonyl]-2-isopropyl-N-(2-pyridin-2-ylethyl)benzenesulfonamide], the fold induction at 15 µM runs as follows: under setting [1], 2.9; under setting [2], 0.9.

With `O=S(=O)(NCCc1ccccn1)c1cc(S(=O)(=O)c2ccccc2)ccc1C1CCCCC1` [Example 459, 2-cyclohexyl-5-(phenylsulfonyl)-N-(2-pyridin-2-ylethyl)benzenesulfonamide], the fold induction at 15 µM was determined as 1.6 under setting [1] and 0.9 under setting [2].

Consider `O=S(=O)(NCCc1ccccn1)c1cc(S(=O)(=O)c2ccc(F)cc2)ccc1C1CCCCC1` [Example 460, 2-cyclohexyl-5-[(4-fluorophenyl)sulfonyl]-N-(2-pyridin-2-ylethyl)benzenesulfonamide], for which the fold induction at 15 µM under setting [1] was 1.1 and the fold induction at 15 µM under setting [2] amounted to 1.

For the molecule `COCC(=O)N1CCC(NS(=O)(=O)c2cc(S(=O)(=O)c3ccccc3)ccc2C)CC1` [Example 469, N-[1-(methoxyacetyl)piperidin-4-yl]-2-methyl-5-(phenylsulfonyl)benzenesulfonamide], the fold induction at 15 µM under setting [1] amounted to 3.6 and the fold induction at 15 µM under setting [2] was 1.1.

Regarding `Cc1ccc(S(=O)(=O)c2ccccc2)cc1S(=O)(=O)NC1CCN(C(=O)Cc2ccccc2)CC1` [Example 470, 2-methyl-N-[1-(phenylacetyl)piperidin-4-yl]-5-(phenylsulfonyl)benzenesulfonamide], the fold induction at 15 µM under setting [1] was 1.6 and the fold induction at 15 µM under setting [2] amounted to 1.1.

With `Cc1ccc(S(=O)(=O)c2ccccc2)c(C)c1S(=O)(=O)NCCc1ccccn1` [Example 472, 2,6-dimethyl-3-(phenylsulfonyl)-N-(2-pyridin-2-ylethyl)benzenesulfonamide], the fold induction at 15 µM reads like this: under setting [1], 0.9; under setting [2], 0.9.

Regarding `Cc1ccc(S(=O)(=O)c2ccccc2)c(C)c1S(=O)(=O)NC1CCOCC1` [Example 473, 2,6-dimethyl-3-(phenylsulfonyl)-N-(tetrahydro-2H-pyran-4-yl)benzenesulfonamide], the fold induction at 15 µM was 0.9 under setting [1] and 0.9 under setting [2].

Consider `Cc1ccc(S(=O)(=O)c2ccccc2)cc1S(=O)(=O)NC1CCN(C(=O)C2CC2)CC1` [Example 475, N-[1-(cyclopropylcarbonyl)piperidin-4-yl]-2-methyl-5-(phenylsulfonyl)benzenesulfonamide], for which the fold induction at 15 µM under setting [1] stood at 1.9 and the fold induction at 15 µM under setting [2] stood at 1.1.

As for `CC(=O)N1CCC(NS(=O)(=O)c2cc(S(=O)(=O)c3ccccc3)ccc2C)CC1` [Example 479, N-(1-acetylpiperidin-4-yl)-2-methyl-5-(phenylsulfonyl)benzenesulfonamide], the fold induction at 15 µM under setting [1] was determined as 2.1 and the fold induction at 15 µM under setting [2] stood at 1.1.

On to `Cc1ccc(S(=O)(=O)c2ccccc2)cc1S(=O)(=O)NC1CCN(S(=O)(=O)c2cccc3c(N(C)C)cccc23)CC1` [Example 483, N-(1-{[5-(dimethylamino)-1-naphthyl]sulfonyl}piperidin-4-yl)-2-methyl-5-(phenylsulfonyl)benzenesulfonamide], for which the fold induction at 15 µM by setting is: under setting [1], 2.9; under setting [2], 1.

Consider `Cc1ccc(S(=O)(=O)c2ccccc2)cc1S(=O)(=O)NC1CCN(C(=O)NC2CCCCC2)CC1` [Example 491, N-cyclohexyl-4-({[2-methyl-5-(phenylsulfonyl)phenyl]sulfonyl}amino)piperidine-1-carboxamide], for which the fold induction at 15 µM under setting [3] turned out to be 1.1 and the fold induction at 15 µM under setting [4] is 1.

With `Cc1ccc(S(=O)(=O)c2cc(Cl)cc(C#N)c2)cc1S(=O)(=O)NCCc1ccccn1` [Example 492, 5-[(3-chloro-5-cyanophenyl)sulfonyl]-2-methyl-N-(2-pyridin-2-ylethyl)benzenesulfonamide], the fold induction at 15 µM is, setting by setting: under setting [3], 1.6; under setting [4], 1.2.

With `Cc1c(S(=O)(=O)NCCCn2ccnc2)cccc1S(=O)(=O)c1ccccc1` [Example 493, N-[3-(1H-imidazol-1-yl)propyl]-2-methyl-3-(phenylsulfonyl)benzenesulfonamide], the fold induction at 15 µM is, setting by setting: under setting [3], 1; under setting [4], 1.1.

Take `Cc1c(S(=O)(=O)NCCc2ccccn2)cccc1S(=O)(=O)c1ccccc1` [Example 494, 2-methyl-3-(phenylsulfonyl)-N-(2-pyridin-2-ylethyl)benzenesulfonamide]: the fold induction at 15 µM reads like this: under setting [3], 1; under setting [4], 1.1.

Turning to `Cc1c(S(=O)(=O)NCCN2CCOCC2)cccc1S(=O)(=O)c1ccccc1` [Example 495, 2-methyl-N-(2-morpholin-4-ylethyl)-3-(phenylsulfonyl)benzenesulfonamide], the fold induction at 15 µM is, setting by setting: under setting [3], 1.1; under setting [4], 1.3.

As for `Cc1ccc(S(=O)(=O)c2ccccc2)cc1S(=O)(=O)NC1CCN(C(=O)Oc2ccc(F)cc2)CC1` [Example 500, 4-fluorophenyl 4-({[2-methyl-5-(phenylsulfonyl)phenyl]sulfonyl}amino)piperidine-1-carboxylate], the fold induction at 15 µM under setting [3] was 1.6 and the fold induction at 15 µM under setting [4] came out at 0.8.

Take `CC(C)c1ccc(S(=O)(=O)c2ccc3c(c2)C(C)(C)OC(=O)N3)cc1S(=O)(=O)NCCc1ccccn1` [Example 515, 5-[(4,4-dimethyl-2-oxo-1,4-dihydro-2H-3,1-benzoxazin-6-yl)sulfonyl]-2-isopropyl-N-(2-pyridin-2-ylethyl)benzenesulfonamide]: the fold induction at 15 µM by setting is: under setting [3], 1.8; under setting [4], 1.

Take `CC(C)c1ccc(S(=O)(=O)c2ccc(F)cc2)cc1S(=O)(=O)NC1CC1` [Example 521, N-cyclopropyl-5-[(4-fluorophenyl)sulfonyl]-2-isopropylbenzenesulfonamide]: the fold induction at 15 µM was 1.7 under setting [3] and 1 under setting [4].

On to `CC(C)c1ccc(S(=O)(=O)c2ccc(F)cc2)cc1S(=O)(=O)NC1CCC1` [Example 522, N-cyclobutyl-5-[(4-fluorophenyl)sulfonyl]-2-isopropylbenzenesulfonamide], for which the fold induction at 15 µM reads like this: under setting [3], 1.4; under setting [4], 0.9.

`CC(C)c1ccc(S(=O)(=O)c2ccc(F)cc2)cc1S(=O)(=O)NC1CCCCC1` [Example 524, N-cyclohexyl-5-[(4-fluorophenyl)sulfonyl]-2-isopropylbenzenesulfonamide]: the fold induction at 15 µM came out at 1.4 under setting [3] and 1 under setting [4].
